Source: patent publication US8124565B2, “Method of protecting a plant propagation material, a plant, and/or plant organs” (priority 2006, dated 2012)
Like-named read-outs stand apart in the source and are kept apart here.

How the values were obtained:
Fusarium graminearum [1] = type: cell-based; details: 48 hrs
Gäumannomyces graminis = assay: Fungal growth assay, Gäumannomyces graminis (microtiter plate, PDB); type: cell-based; details: 72 hrs
Pyrenophora graminea [2] = assay: Fungal growth assay, Pyrenophora graminea (microtiter plate, PDB); type: cell-based; details: 72 hrs
Fusarium graminearum [3] = type: in vivo; details: seed treatment 20 g/100 kg, corn seeds (cv. Magister) in inoculated soil
Rhizoctonia solani = assay: Rhizoctonia solani/cotton (damping off) seed treatment test; type: in vivo; details: seed treatment 200 g/100 kg, cotton seeds in inoculated soil
Procedure: A-2. Rhizoctonia solani/Cotton (Damping Off on Cotton)
A defined amount of mycelium of R. solani is blended with soil and trays are filled with the inoculated soil. The formulated test compounds are applied to cotton seeds. The treated cotton seeds are then sown into the inoculated soil. Until germination the test is stored at 20° C. and a rel. humidity of 90% in the dark. After germination the test is transferred to 25° C. and a rel. humidity of 70% with a photoperiod of 14 h. The evaluation is done by counting the emerged cotton plants and the number of emerged and diseased plants.

Pyrenophora graminea [4] = assay: Pyrenophora graminea/barley (stripe disease) seed treatment test; type: in vivo; details: seed treatment 20 g/100 kg, infected winter barley seeds
Procedure: A-1. Pyrenophora graminea/Barley (Stripe Disease on Barley)
After application of the formulated seed treatment onto P. graminea-infected seeds of winter barley the seeds are sown in trays filled with field soil. The trays are kept in a growth room for 3 weeks at 4° C. After this period the trial is transferred to a greenhouse where a temperature of 12° C. and a 14 hr light period is provided. The following assessments are made: emergence count, final stand count, number of infected plants.

SMILES | Observed control in % (% Cobs) (Fusarium graminearum [1]; 0.03125 ppm) | Observed control in % (% Cobs) (Fusarium graminearum [1]; 0.0625 ppm) | Observed control in % (% Cobs) (Fusarium graminearum [1]; 0.125 ppm) | Observed control in % (% Cobs) (Fusarium graminearum [1]; 0.25 ppm) | Observed control in % (% Cobs) (Gäumannomyces graminis; 0.5 ppm) | Observed control in % (% Cobs) (Pyrenophora graminea [2]; 0.25 ppm) | activity (Fusarium graminearum [3]) | activity (Rhizoctonia solani) | activity (Pyrenophora graminea [4]) | Observed control in % (% Cobs) (Gäumannomyces graminis; 0.25 ppm) | Observed control in % (% Cobs) (Pyrenophora graminea [2]; 0.5 ppm)
Cn1cc(C(=O)Nc2ccccc2C2CC2C2CC2)c(C(F)F)n1 (stereo not drawn) [Compound of formula A, reference compound] | 1.6% | 2.4% | 8.4% | 7.8% | 74.8% | 0% |  |  |  |  | 
Cc1ccc(C2CC(C)(c3cccnc3)N(C)O2)cc1 (stereo not drawn) [Compound of formula I] | 0% | 3.5% | 4.4% | 12.5% |  |  | 100% | 70% | 100% | 26.0% | 62.3%
